What was measured:
B16F10 cells [1] = assay: MTT assay for measuring cell proliferation rate of B16F10 cells; assay type: cell-based, mouse; conditions: 0.1 to 10 μM
[2] = tested on: tyrosinase activity of B16F10 cells; assay: L-DOPA oxidation assay for measuring tyrosinase activity of B16F10 cells; assay type: cell-based, mouse
B16F10 cells [3] = assay: NaOH lysis method for determination of melanin content of B16F10 cells; assay type: cell-based, mouse
B16F10 cells [4] = assay: Western blotting of melanin synthesis proteins (MITF, TYR, TRP-1, TRP-2) in B16F10 cells; assay type: cell-based, mouse; conditions: 72 h, vs blank control
[5] = tested on: normal human melanocytes (NHMCs); assay: Morphology of normal human melanocytes (NHMCs), phase-contrast microscopy; assay type: cell-based; conditions: 0.1-10 μM, 5 days, with increases in dosage
[6] = tested on: normal human primary melanocytes; assay: MTT assay for measuring cell proliferation rate of human primary melanocytes; assay type: cell-based; conditions: 72 hours
[7] = tested on: tyrosinase activity of human primary melanocytes; assay: L-DOPA oxidation assay for tyrosinase activity of human primary melanocytes; assay type: cell-based
[8] = tested on: human primary melanocytes; assay: NaOH lysis method for measuring melanin content of human primary melanocytes; assay type: cell-based
[9] = tested on: human primary melanocytes; assay: Western blotting of melanin synthesis proteins (MITF, TYR, TRP-1, TRP-2) in human primary melanocytes; assay type: cell-based; conditions: 72 h, vs blank control
C57BL/6 mice [10] = assay: Skin color on the back of hair-removed synchronized C57BL/6 mice after gavage; assay type: in vivo, mouse; conditions: 20 mg/kg gavage once a day, 12th day, vs solvent control group
C57BL/6 mice [11] = assay: Western blotting of melanin synthesis proteins in skin hair follicles of C57BL/6 mice; assay type: in vivo, mouse; conditions: 20 mg/kg gavage, 12th day
C57BL/6 mice [12] = assay: Immunohistochemistry of melanin synthesis proteins in hair follicle melanocytes of C57BL/6 mice; assay type: in vivo, mouse; conditions: 20 mg/kg gavage, 12th day, immunohistochemical staining
zebrafish embryos = assay: Melanogenesis in PTU-induced zebrafish depigmentation model; assay type: in vivo; conditions: even at 1.0 μM, hour 12 to hour 60 after fertilization; especially in skin and eyes
Method: The zebrafish depigmentation model were obtained by treating zebrafish embryos with 1-phenyl 2-thiourea (PTU). […] Both embryos were treated in 0.2 mM (“M” stands for “mole/liter” throughout this disclosure) PTU to inhibit melanogenesis from after fertilization until the time their pictures were taken, i.e., at hour 35 and hour 60, respectively, i.e., the PTU(35) group and the PTU(60) group. […] Data expressed as mean±SD (n=40).

[13] = tested on: TYR activity in zebrafish; assay: TYR activity in PTU(35) group zebrafish; assay type: in vivo
Method: The zebrafish depigmentation model were obtained by treating zebrafish embryos with 1-phenyl 2-thiourea (PTU). […] All data were expression for at least three experiments. ***P<0.001 vs control; ^#P<0.05, ^##P<0.01, ^###P<0.001 vs PTU (35 h) group. Data expressed as mean±SD (n=40).

[14] = tested on: in vitro cultured normal human skin tissue; assay: Melanin content of in vitro cultured normal human skin tissue (NaOH cracking process); assay type: cell-based; conditions: 1 μM, 48 hours
[15] = tested on: tyrosinase activity in normal human skin tissue; assay: Tyrosinase activity of in vitro cultured normal human skin tissue (L-DOPA); assay type: cell-based; conditions: 1-100 μM, 48 hours
[16] = in vivo; cited from earlier work
A375 cells = assay: Cell migration (wound healing test) and morphology, A375 cells; conditions: 48 hours, 0.1-10 μM
B16F10 cells [17] = assay: Cell migration (wound healing test) and morphology, B16F10 cells; conditions: 48 hours, 0.1-10 μM

For CNCCC(Oc1ccc(C(F)(F)F)cc1)c1ccccc1 (centres unmarked) [fluoxetine, N-methyl-γ-[4-(trifluoromethyl)phenoxy] phenylpropylamine], the “toxicity and carcinogenesis on B16F10 melanoma cells” value (B16F10 cells [1]) was “low toxicity and low carcinogenesis”, the “effect on the growth of B16F10 cells (cell proliferation rate)” value (B16F10 cells [1]; 72 hours, vs blank control, P>0.05) was “no significant effect” and the “tyrosinase activity of B16F10 cells” value ([2]; 72 hours, vs blank control, P<0.05 at 1 μM and 5 μM, P<0.01 at 10 μM) was “significantly promoted”. For the same compound, the “enzyme activity increase rate compared with positive drug psoralen” value ([2]; B16F10 cells, fluoxetine in the highest concentration) was “close to that of the positive drug psoralen”, the “melanin content of B16F10 cells” value (B16F10 cells [3]; 1 to 10 μM, 72 hours, vs blank control, P<0.05 at 1 μM, P<0.01 at 5 μM and 10 μM) was “significantly increased” and the “melanin content increase rate compared with positive drug psoralen” value (B16F10 cells [3]; B16F10 cells) was “exceeded that of the positive drug psoralen”. For the same compound, the “expression of protein MITF” value (B16F10 cells [4]) was “significantly improve”, the “expression of protein tyrosinase (TYR)” value (B16F10 cells [4]) was “significantly improve” and the “expression of tyrosinase-related protein 1 (TRP-1)” value (B16F10 cells [4]) was “significantly improve”. The “protein level of tyrosinase-related protein 2 (TRP-2)” value (B16F10 cells [4]) was “not significantly affected”, the “dendritic morphology of NHMCs (number and length of dendrites)” value [5] was “the number as well as the length of the primary dendritic melanocytes increase significantly” and the “toxicity on human primary melanocytes” value [6] was “relatively low toxicity”. The “effect on the growth of normal human primary melanocytes” value ([6]; vs blank control, P>0.05) was “no significant effect”, the “tyrosinase activity of human primary melanocytes” value ([7]; 72 hours, vs blank control, P<0.01) was “significantly promoted” and the “enzyme activity increase rate compared with positive drug psoralen” value ([7]; human primary melanocytes, fluoxetine at 5 μM and 10 μM) was “exceeded that of the positive drug psoralen”. For the same compound, the “melanin content of human primary melanocytes” value ([8]; 72 hours, vs control group, P<0.01) was “significantly increased”, the “melanin content increase rate compared with positive drug psoralen” value ([8]; human primary melanocytes) was “close to or exceeded that of the positive drug psoralen” and the “expression of protein MITF” value [9] was “significantly improve”. For the same compound, the “expression of protein tyrosinase (TYR)” value [9] was “significantly improve”, the “expression of tyrosinase-related protein 1 (TRP-1)” value [9] was “significantly improve” and the “protein level of tyrosinase-related protein 2 (TRP-2)” value [9] was “not significantly affected”. The “skin color in the hair-removed area of the skin” value (C57BL/6 mice [10]) was “significantly darkened”, the “expression of protein MITF in skin hair follicles” value (C57BL/6 mice [11]) was “significantly improve” and the “expression of tyrosinase (TYR) in skin hair follicles” value (C57BL/6 mice [11]) was “significantly improve”. For the same compound, the “expression of tyrosinase-related protein 1 (TRP-1) in skin hair follicles” value (C57BL/6 mice [11]) was “significantly improve”, the “expression of tyrosinase-related protein 2 (TRP-2) in skin hair follicles” value (C57BL/6 mice [11]) was “significantly improve” and the “expression of tyrosinase (TYR) in hair follicle melanocytes” value (C57BL/6 mice [12]) was “significantly improve”. The “expression of tyrosinase-related protein 1 (TRP-1) in hair follicle melanocytes” value (C57BL/6 mice [12]) was “significantly improve”, the “expression of tyrosinase-related protein 2 (TRP-2) in hair follicle melanocytes” value (C57BL/6 mice [12]) was “significantly improve” and the “melanogenesis in the PTU model zebrafish” value (zebrafish embryos) was “increased melanogenesis”. The “TYR activity, dosage dependence” value ([13]; PTU(35) group zebrafish, 10.0 μM compared with 1.0 μM) was “higher TRY activity than Flx(1.0 μM)”, the “TYR activity in the PTU(35) group zebrafish” value ([13]; exposure for 48 hours (hour 12 to hour 60 after fertilization)) was “enhanced the TYR activity” and the “melanogenesis (melanin content) in skin tissue” value [14] was “stimulates melanogenesis”. The “activity of tyrosinase in skin tissue” value [15] was “did not exhibit any change”, the “drug excreted in the stool” value [16] was 15% and the “drug excreted in the urine” value [16] was “about 80%”. The cell mobility (A375 cells) was “may increase the mobility” and the cell mobility (B16F10 cells [17]) was “may increase the mobility”.

From patent US9833424B2, “Application of fluoxetine to treatment of depigmentation diseases” (SHANDONG RUNZE PHARMACEUTICALS CO., LTD., priority 2011, dated 2017)
